Test results published in publication PMC3889502, “Inhibitory effects of monoterpenes on human TRPA1 and the structural basis of their activity” (The Journal of Physiological Sciences : JPS, 2013).
“Also recorded” adds a separate entry of the source.

How the values were obtained:
hTRPA1 [1] = target: T1, hTRPA1 (Homo sapiens, UniProt O75762); experiment: Whole-cell patch-clamp: inhibition of agonist-induced hTRPA1 current; assay type: cell-based; conditions: for Inhibition of AITC-induced hTRPA1 current / IC50: AITC 20 μM; for Inhibition of AITC-induced hTRPA1 current / Inhibition of FFA-activated hTRPA1-mediated current / Inhibition of menthol-activated hTRPA1-mediated current: test compound 1 mM, -60 mV; for Inhibition of AITC-induced hTRPA1 current / Inhibition of FFA-activated hTRPA1-mediated current / Inhibition of menthol-activated hTRPA1-mediated current / IC50: no extracellular Ca2+; for Inhibition of FFA-activated hTRPA1-mediated current: FFA 100 μM; for Inhibition of menthol-activated hTRPA1-mediated current: menthol 1 mM; for Comparison of inhibitory effects on hTRPA1 activity between optical isomers of borneol: AITC 20 μM-induced current (ESM Fig. 2); for IC50: patch-clamp, mean ± SEM, n = 5-10, Hill fit
T1 construct: Full-length hTRPA1 was obtained from Life Technologies (Carlsbad, CA); host or cells: HEK293T
Description: (§1) Human embryonic kidney (HEK) 293T cells were maintained in DMEM (WAKO Pure Chemical Industries Ltd.) supplemented with 10 % fetal bovine serum (Biowest SAS, Caille, France), 100 U/mL penicillin (Life Technologies), 100 μg/mL streptomycin (Life Technologies), and 2 mM L-glutamine (GlutaMAX; Life Technologies) at 37 °C in 5 % CO2. For Ca^2+-imaging, 1 μg of plasmid DNA containing hTRPA1 in pcDNA3 in OPTI-MEM medium (Life Technologies) was transfected into HEK293T cells using Lipofectamine Plus Reagent (Life Technologies). Following incubation for 3–4 h, cells were reseeded on coverslips and incubated further at 37 °C in 5 % CO2.
(§2) Whole-cell patch-clamp recordings were performed 1 day after transfection. The standard bath solution was the same as that used in the Ca^2+-imaging experiments, and extracellular Ca^2+ was removed and 5 mM EGTA added for the recording of AITC-, menthol- and FFA-induced current responses. The pipette solution contained 140 mM KCl, 5 mM EGTA, and 10 mM HEPES, pH 7.4 (adjusted with KOH). Data from the whole-cell voltage-clamp recordings were sampled at 10 kHz and filtered at 5 kHz for analysis (Axon 200B amplifier with pCLAMP software; Axon Instruments, Sunnyvale, CA). The membrane potential was clamped at −60 mV for all conditions. In some experiments, voltage ramp-pulses from −100 to +100 mV (500 ms) were applied every 5 s. All experiments were performed at room temperature.
(§3) Data in all of the figures are shown as the mean ± standard error of the mean, and P values of <0.05 were considered to be significant. […] Dose-dependent curves were fit with a Hill equation.
The current response was measured in the absence of extracellular Ca^2+ to minimize desensitization. […] The dose-dependency of the inhibitory effects of the three compounds on hTRPA1 was then examined using the patch-clamp method. […] Commercially available borneol contains both optical isomers.

hTRPA1-S873V/T874L = target: T2, hTRPA1-S873V/T874L (Homo sapiens, UniProt O75762, S873V/T874L); experiment: Whole-cell patch-clamp: inhibition of AITC-activated current in the mutant channel; assay type: cell-based; conditions: borneol 0.03, 0.3, 1 mM; camphor 0.03, 0.3, 3 mM; 1,8-cineole 1, 5, 10 mM; -60 mV; no extracellular Ca2+
T2 construct: Full-length hTRPA1 was obtained from Life Technologies (Carlsbad, CA); expressed in transfected cells; host or cells: HEK293T
Description: as §2, §3
(§4) To test this hypothesis, we investigated whether the serine and threonine residues are involved in the inhibitory effect of borneol. […] We searched for an involvement of other amino acids in borneol activity.

hTRPA1-Y812A = target: T3, hTRPA1-Y812A (Homo sapiens, UniProt O75762, Y812A); experiment: as above; assay type: cell-based; conditions: borneol 0.03, 0.3, 1 mM; camphor 0.03, 0.3, 3 mM; 1,8-cineole 1, 5, 10 mM; -60 mV; no extracellular Ca2+
T3 construct: Full-length hTRPA1 was obtained from Life Technologies (Carlsbad, CA); expressed in transfected cells; host or cells: HEK293T
Description: as §2, §3, §4

hTRPA1 [2] = target: T1, hTRPA1; conditions: cited from earlier work
mTRPA1 = conditions: camphor 1 mM; current increased upon washing-out; cited from earlier work
hTRPA1 [3] = target: T1, hTRPA1; experiment: Whole-cell patch-clamp: activation of hTRPA1 current by test compounds; assay type: cell-based; conditions: HEK293T cells expressing hTRPA1
Description: as §1, §2
In order to confirm the effects of the above compounds, we performed patch-clamp experiments with HEK293T cells expressing hTRPA1.
Cells were held at −60 mV and ramp-pulses from −100 to +100 mV (500 ms) were administered every 5 s

hTRPA1 [4] = target: T1, hTRPA1; experiment: Ca2+-imaging (fura-2): activation by test compounds, normalized to menthol; assay type: cell-based; conditions: test compound 1 mM; HEK293T cells expressing hTRPA1
Description: (§5) For Ca^2+-imaging, 1 μg of plasmid DNA containing hTRPA1 in pcDNA3 in OPTI-MEM medium (Life Technologies) was transfected into HEK293T cells using Lipofectamine Plus Reagent (Life Technologies). Following incubation for 3–4 h, cells were reseeded on coverslips and incubated further at 37 °C in 5 % CO2.
(§6) Ca^2+-imaging was performed 1 day after transfection. […] Cytosolic-free Ca^2+ concentrations in HEK293T cells were measured by dual-wavelength fura-2 (Molecular Probes, Invitrogen Corp.) microfluorometry with excitation at 340/380 nm and emission at 510 nm. The fura-2 ratio image was calculated and acquired using the IP-Lab imaging processing system (Scanalytics Inc, Fairfax, VA). Ionomycin was used to confirm cell viability in the vector-transfected cells.
In these experiments, changes in the fura-2 ratio (corresponding to cytosolic Ca^2+ concentrations) induced by the test compounds and menthol were compared because menthol, which activates hTRPA1, and the test compounds are members of the monoterpene family.
Data are presented as the mean ± standard error of the mean (SEM) (n = 27–67)

hTRPA1 [5] = target: T1, hTRPA1; experiment: Ca2+-imaging (fura-2): inhibition of menthol-induced cytosolic Ca2+ increase; assay type: cell-based; conditions: menthol 1 mM; test compound 1 mM; HEK293T cells expressing hTRPA1
Description: as §5, §6
Data are presented as the mean ± SEM (n = 47–79)

[6] = tested on: vector-transfected HEK293T cells; experiment: Ca2+-imaging in vector-transfected cells (control); assay type: cell-based, human; conditions: with or without menthol; cells responded normally to ionomycin 5 μM
Description: (§7) Ca^2+-imaging was performed 1 day after transfection. HEK293T cells on coverslips were mounted in an open chamber and superfused with a standard bath solution (140 mM NaCl, 5 mM KCl, 2 mM MgCl2, 2 mM CaCl2, 10 mM HEPES, and 10 mM glucose, pH 7.4). Cytosolic-free Ca^2+ concentrations in HEK293T cells were measured by dual-wavelength fura-2 (Molecular Probes, Invitrogen Corp.) microfluorometry with excitation at 340/380 nm and emission at 510 nm. The fura-2 ratio image was calculated and acquired using the IP-Lab imaging processing system (Scanalytics Inc, Fairfax, VA). Ionomycin was used to confirm cell viability in the vector-transfected cells.
Washing-out of the three compounds after menthol exposure led to small increases in the fura-2 ratio, which could be due to the loss of inhibition and resumption of hTRPA1 activity from residual menthol in the cell.
Supplementary file 12576_2013_289_MOESM1_ESM.jpg: Supplementary material 1 (JPEG 324 kb) Supplementary Figure 1. […] (n = 48-75)

hTRPA1 Y812A mutant = target: T4, hTRPA1 Y812A mutant (Homo sapiens, UniProt O75762, Y812A); experiment: Ca2+-imaging screen of tyrosine mutants in TM2 and TM3 of hTRPA1; assay type: cell-based; conditions: data not shown
T4 construct: Full-length hTRPA1 was obtained from Life Technologies (Carlsbad, CA); expressed in transfected cells; host or cells: HEK293T
Description: as §7
A mouse TRPA1 mutant in which serine and threonine residues located in the predicted inner side of TM5 were replaced with valine and leucine (S876V/T877L), respectively, was neither activated nor inhibited by menthol. […] To test this hypothesis, we investigated whether the serine and threonine residues are involved in the inhibitory effect of borneol. […] We searched for an involvement of other amino acids in borneol activity.

[7] = test compound 1 mM, held at -60 mV, ramp-pulses -100 to +100 mV

T1 sequence (O75762 whole entry): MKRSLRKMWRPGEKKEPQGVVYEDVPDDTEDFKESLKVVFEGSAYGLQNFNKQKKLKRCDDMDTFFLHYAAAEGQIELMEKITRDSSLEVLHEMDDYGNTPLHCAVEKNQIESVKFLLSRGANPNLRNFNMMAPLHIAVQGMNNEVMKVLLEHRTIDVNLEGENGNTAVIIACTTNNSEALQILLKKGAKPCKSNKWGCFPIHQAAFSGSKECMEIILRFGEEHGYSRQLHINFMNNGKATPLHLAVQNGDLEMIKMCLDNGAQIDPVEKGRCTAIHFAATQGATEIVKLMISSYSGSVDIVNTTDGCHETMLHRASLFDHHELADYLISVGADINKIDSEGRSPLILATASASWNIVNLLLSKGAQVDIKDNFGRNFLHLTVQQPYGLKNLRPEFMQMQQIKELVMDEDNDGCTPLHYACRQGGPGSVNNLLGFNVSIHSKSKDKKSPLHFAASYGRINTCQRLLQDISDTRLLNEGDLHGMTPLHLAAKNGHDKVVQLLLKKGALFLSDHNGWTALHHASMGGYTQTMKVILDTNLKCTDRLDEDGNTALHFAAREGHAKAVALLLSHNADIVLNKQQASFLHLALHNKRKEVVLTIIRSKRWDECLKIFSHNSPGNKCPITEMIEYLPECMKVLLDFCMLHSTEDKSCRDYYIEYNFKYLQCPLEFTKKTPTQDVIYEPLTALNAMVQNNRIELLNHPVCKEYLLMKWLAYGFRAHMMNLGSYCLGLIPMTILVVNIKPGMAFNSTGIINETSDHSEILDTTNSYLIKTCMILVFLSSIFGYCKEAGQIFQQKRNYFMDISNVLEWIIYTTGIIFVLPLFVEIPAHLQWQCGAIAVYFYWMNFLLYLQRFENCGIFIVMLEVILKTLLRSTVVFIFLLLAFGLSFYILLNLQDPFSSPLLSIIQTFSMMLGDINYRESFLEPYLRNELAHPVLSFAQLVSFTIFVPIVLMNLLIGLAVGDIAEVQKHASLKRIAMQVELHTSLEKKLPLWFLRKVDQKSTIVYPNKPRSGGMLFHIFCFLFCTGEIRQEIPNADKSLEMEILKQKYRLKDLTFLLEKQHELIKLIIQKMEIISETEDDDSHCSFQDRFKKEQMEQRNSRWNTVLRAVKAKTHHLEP
T2 sequence (O75762 whole entry S873V/T874L): as the sequence (O75762 whole entry) above, with S873V, T874L counted along it
T3 sequence (O75762 whole entry Y812A): as the sequence (O75762 whole entry) above, with Y812A counted along it
T4 sequence (O75762 whole entry Y812A): as the sequence (O75762 whole entry) above, with Y812A counted along it

SMILES: CC12CCC(CC1=O)C2(C)C (centres unmarked) [Camphor]
- Inhibition of AITC-induced hTRPA1 current (hTRPA1 [1]): partially inhibited
- Inhibitory effect on AITC-activated current of hTRPA1-S873V/T874L compared with hTRPA1-WT (hTRPA1-S873V/T874L): no significant changes
- Inhibitory effect on AITC-activated current of hTRPA1-Y812A compared with hTRPA1-WT (hTRPA1-Y812A): such differences between WT hTRPA1 and hTRPA1-Y812A were not observed
- Effect on hTRPA1 (activation or inhibition) (hTRPA1 [2]): inhibit hTRPA1
- Effect on mTRPA1-mediated basal current (mTRPA1): inhibition of mTRPA1-mediated basal current

SMILES: CC12CCC(C1)C(C)(C)C2O (centres unmarked) [Fenchyl alcohol]
- Activation of whole-cell hTRPA1 current (hTRPA1 [3]; [7]): did not activate hTRPA1
- Inhibition of AITC-induced hTRPA1 current (hTRPA1 [1]): completely inhibited
- Inhibition of FFA-activated hTRPA1-mediated current (hTRPA1 [1]): completely inhibited
- Inhibition of menthol-activated hTRPA1-mediated current (hTRPA1 [1]): completely inhibited

SMILES: CC12CCC(C1)C(C)(C)C2=O (single isomer, unassigned; (-)) [(−)-Fenchone]
- Change in fura-2 ratio (340/380 nm) by test compound, normalized to the change by 1 mM menthol (hTRPA1 [4]): activated hTRPA1

SMILES: CC1(C)[C@@H]2CC[C@@]1(C)[C@@H](O)C2 [(+)-borneol]
- Comparison of inhibitory effects on hTRPA1 activity between optical isomers of borneol (hTRPA1 [1]): no difference in the inhibitory effects

SMILES: CC1(C)C2CCC1(C)C(O)C2 (centres unmarked) [Borneol]
- Change in fura-2 ratio (340/380 nm) by test compound, normalized to the change by 1 mM menthol (hTRPA1 [4]): small changes in the fura-2 ratio
- Activation of whole-cell hTRPA1 current (hTRPA1 [3]; [7]): did not activate hTRPA1
- Inhibition of the menthol-induced increase in fura-2 ratio (hTRPA1 [5]): almost completely blocked
- IC50 (hTRPA1 [1]): 200 ± 60 µM
- Inhibition of AITC-induced hTRPA1 current (hTRPA1 [1]): completely inhibited
- Inhibition of FFA-activated hTRPA1-mediated current (hTRPA1 [1]): completely inhibited
- Inhibition of menthol-activated hTRPA1-mediated current (hTRPA1 [1]): completely inhibited
- Inhibitory effect on AITC-activated current of hTRPA1-S873V/T874L compared with hTRPA1-WT (hTRPA1-S873V/T874L): significantly lower
- Inhibitory effect on AITC-activated current of hTRPA1-Y812A compared with hTRPA1-WT (hTRPA1-Y812A): significantly lower inhibitory effect
- Effect on fura-2 ratio in vector-transfected cells [6]: did not provide any effect; also recorded: No changes in the fura-2 ratio
- Effect of borneol on the Y812A mutant in Ca2+-imaging (hTRPA1 Y812A mutant): reduced

SMILES: O=C1CC2CC[C@H]1C2 [Norcamphor]
- Change in fura-2 ratio (340/380 nm) by test compound, normalized to the change by 1 mM menthol (hTRPA1 [4]): small changes in the fura-2 ratio
- Activation of whole-cell hTRPA1 current (hTRPA1 [3]; [7]): did not activate hTRPA1
- Inhibition of the menthol-induced increase in fura-2 ratio (hTRPA1 [5]): did not inhibit
- Effect on fura-2 ratio in vector-transfected cells [6]: did not provide any effect; also recorded: No changes in the fura-2 ratio

SMILES: CC1(C)[C@H]2CC[C@]1(C)[C@H](O)C2 [(−)-borneol]
- Comparison of inhibitory effects on hTRPA1 activity between optical isomers of borneol (hTRPA1 [1]): no difference in the inhibitory effects

SMILES: CC1CCC(C(C)C)C(O)C1 (centres unmarked) [menthol]
- Effect on hTRPA1 (activation or inhibition) (hTRPA1 [2]): activate hTRPA1

SMILES: C=CCN=C=S [AITC, allyl isothiocyanate, reference compound]
- Activation of whole-cell hTRPA1 current (hTRPA1 [3]; AITC 20 μM): robust current activation with outward rectification

SMILES: CC(C)C12CCC(C)(CC1)O2 [1,4-cineole]
- Effect on hTRPA1 (activation or inhibition) (hTRPA1 [2]): activate hTRPA1

SMILES: CC1(C)[C@@H]2CC[C@@]1(C)[C@](C)(O)C2 [2-Methylisoborneol]
- Change in fura-2 ratio (340/380 nm) by test compound, normalized to the change by 1 mM menthol (hTRPA1 [4]): small changes in the fura-2 ratio
- Activation of whole-cell hTRPA1 current (hTRPA1 [3]; [7]): did not activate hTRPA1
- Inhibition of the menthol-induced increase in fura-2 ratio (hTRPA1 [5]): almost completely blocked
- IC50 (hTRPA1 [1]): 120 ± 30 µM
- Inhibition of AITC-induced hTRPA1 current (hTRPA1 [1]): completely inhibited
- Inhibition of FFA-activated hTRPA1-mediated current (hTRPA1 [1]): completely inhibited
- Inhibition of menthol-activated hTRPA1-mediated current (hTRPA1 [1]): completely inhibited
- Effect on fura-2 ratio in vector-transfected cells [6]: did not provide any effect; also recorded: No changes in the fura-2 ratio

SMILES: CC12CCC(CC1)C(C)(C)O2 [1,8-Cineole]
- Inhibitory effect on AITC-activated current of hTRPA1-S873V/T874L compared with hTRPA1-WT (hTRPA1-S873V/T874L): no significant changes
- Inhibitory effect on AITC-activated current of hTRPA1-Y812A compared with hTRPA1-WT (hTRPA1-Y812A): such differences between WT hTRPA1 and hTRPA1-Y812A were not observed
- Effect on hTRPA1 (activation or inhibition) (hTRPA1 [2]): inhibit hTRPA1
